# Experimental data published in patent US8637557B2, “Aminothiazole derivative” (Taisho Pharmaceutical Co., Ltd, priority 2009, dated 2014).
# Where two headings read alike, the source gives them in different places.
# Molecular target: T1, human PI 3-kinase p120γ (Homo sapiens, UniProt P48736)
# T1 construct: purchased Millipore Corporation
# Assay: PI 3-kinase p120γ enzyme activity inhibition test
# Assay type: biochemical
# Conditions: ATP 10.0 μM, PIP2-PS 5.0 μM, 30° C., 2 hours
# Method: Using human PI 3-kinase p120γ (manufactured by Millipore Corporation) and a mixed micellized product (hereinafter abbreviated as PIP2-PS) of the substrate thereof, L-a-Phosphatidyl-D-myo-inositol-4,5-bisphosphate (product of Calbiochem, hereinafter abbreviated as PIP2), and L-a-Phosphatidyl-L-Serine (manufactured by Sigma, hereinafter abbreviated as PS), the compound of the present invention was examined for the inhibitory action on PI3 Kinase p120γ enzyme activity (Km=8.9 μM for ATP, Km=4.0 μM for PIP2-PS).
# PIP2-PS was prepared by mixing 500 μM of PIP2 and 2.5 nM of PS and sonicating the mixture for 40 minutes while ice cooling to cause micellization. ATP (final concentration 10.0 μM), [γ-^33P] ATP (final concentration 10 μCi/ml), PIP2-PS (final concentration 5.0 μM) and DMSO solutions of the test compound in different concentrations (compound final concentration 1.0×10^−5 to 2.4×10^−12 M, DMSO final concentration 0.1%) were added to PI 3-kinase p120γ, stirred and reacted at 30° C. for 2 hours. Using Phospholipid-Coated FlashPlate Microplates, 96-Well and Phospholipid FlashPlate Coating Buffer (both manufactured by PerkinElmer Co., Ltd.), PIP2-PS and phosphorylated PIP2-PS were allowed to be adsorbed to the well wall of the plate and collected. The well was washed twice with PBS (Phosphate-Buffered Saline) and dried. The radioactivity was measured using Top Count NXT (manufactured by PerkinElmer Co., Ltd.), whereby the phosphorylated amount (a) of PIP2-PS at the time of compound addition was calculated.
# The same procedure was carried out in the absence of the test compound and the phosphorylated amount (b) of PIP2-PS was calculated. Further, the same procedure was carried out in the absence of both of the substrate and the test compound, and the PIP2-PS phosphorylated amount (c) of the background was calculated.
# The PI3 Kinase p120γ enzyme activity suppression rate of the compound was calculated by the following formula. Suppression rate (%)=[1−(a−c)/(b−c)]×100
# More specifically, using the suppression rate by the test compound of different concentrations, the IC50 value was calculated according to the dose-dependent inhibition curve analyzed by a data analysis software Origin (Lightstone Corp.) and used as the inhibitory activity index.
# [1] = read-out: PI3Kγ (IC50 value class)
# T1 sequence (P48736 whole entry): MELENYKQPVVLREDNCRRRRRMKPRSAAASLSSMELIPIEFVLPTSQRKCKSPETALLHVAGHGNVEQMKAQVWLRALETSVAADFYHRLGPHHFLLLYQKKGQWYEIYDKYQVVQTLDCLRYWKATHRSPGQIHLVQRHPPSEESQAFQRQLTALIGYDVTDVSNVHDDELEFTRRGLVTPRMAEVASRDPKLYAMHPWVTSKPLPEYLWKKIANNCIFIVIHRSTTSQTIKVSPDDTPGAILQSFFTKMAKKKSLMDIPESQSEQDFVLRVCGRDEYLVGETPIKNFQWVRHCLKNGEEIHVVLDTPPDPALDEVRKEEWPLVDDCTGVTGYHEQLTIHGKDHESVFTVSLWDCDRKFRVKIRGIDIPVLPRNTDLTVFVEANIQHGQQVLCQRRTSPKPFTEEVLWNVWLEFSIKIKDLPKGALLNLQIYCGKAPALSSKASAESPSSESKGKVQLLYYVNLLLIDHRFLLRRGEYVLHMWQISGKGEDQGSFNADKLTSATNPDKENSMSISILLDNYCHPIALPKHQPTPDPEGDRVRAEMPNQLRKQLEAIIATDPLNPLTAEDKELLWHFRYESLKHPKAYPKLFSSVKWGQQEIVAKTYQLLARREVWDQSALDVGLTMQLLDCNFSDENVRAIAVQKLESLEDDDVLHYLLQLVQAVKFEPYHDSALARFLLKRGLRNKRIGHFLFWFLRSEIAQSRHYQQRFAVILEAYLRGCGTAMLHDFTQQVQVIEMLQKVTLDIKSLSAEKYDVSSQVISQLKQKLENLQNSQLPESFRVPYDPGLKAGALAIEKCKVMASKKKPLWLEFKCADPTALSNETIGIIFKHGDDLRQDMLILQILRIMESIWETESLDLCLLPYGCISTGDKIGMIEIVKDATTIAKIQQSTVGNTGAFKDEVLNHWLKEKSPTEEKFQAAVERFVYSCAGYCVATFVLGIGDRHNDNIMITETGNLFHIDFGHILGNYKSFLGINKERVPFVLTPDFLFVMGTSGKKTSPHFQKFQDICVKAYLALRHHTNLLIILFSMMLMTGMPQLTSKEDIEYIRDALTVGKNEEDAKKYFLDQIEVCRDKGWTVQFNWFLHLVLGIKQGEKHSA
IC50 [1] [nM],IC50 (read-out: IC50 value) [nM],Compound
100 to 500,,CC(=O)Nc1nc(C)c(-c2nc(N3CC[C@@H](O)C3)no2)s1 [Example 103]
100 to 500,,CC(=O)Nc1nc(C)c(-c2nc(C(=O)NCC(C)O)no2)s1 (stereo not drawn) [Example 91]
< 100,,CC(=O)Nc1nc(C)c(-c2nc(C(C)(C)CCO)no2)s1 [Example 73]
100 to 500,,CC(=O)Nc1nc(C)c(-c2nc(C(=O)C(C)(C)C)no2)s1 [Example 88]
< 100,,CC(=O)Nc1nc(C)c(-c2nc(C3CCCOC3)no2)s1 (stereo not drawn) [Example 112]
100 to 500,,COCCc1noc(-c2sc(NC(C)=O)nc2C)n1 [Example 22]
< 100,,Cc1nc(NC(=O)NCCC(=O)NC(C)(C)CO)sc1-c1nc(-c2cccnc2)no1 [Example 149]
< 100,,Cc1nc(NC(=O)NCCCN2CCCC2=O)sc1-c1nc(CC(C)(C)CO)no1 [Example 159]
< 100,,Cc1nc(NC(=O)NCCC(=O)NC(C)(C)C)sc1-c1nc(-c2cccnc2)no1 [Example 132]
< 100,,CCOC(=O)[C@H]1CCCC1NC(=O)Nc1nc(C)c(-c2nc(-c3cccnc3)no2)s1 (stereo partly drawn) [Example 144]
< 100,,CC(=O)Nc1nc(C)c(-c2nc(CC(C)(C)CF)no2)s1 [Example 95]
< 100,,Cc1nc(NC(N)=O)sc1-c1nc(-c2cccnc2)no1 [Example 124]
< 100,,Cc1nc(NC(=O)NCCC(=O)OC(C)C)sc1-c1nc(-c2cccnc2)no1 [Example 140]
< 100,,Cc1nc(NC(=O)NCCC(=O)NC(C)(CO)CO)sc1-c1nc(-c2cccnc2)no1 [Example 152]
500 to 10000,,CCOC(C)(OCC)c1noc(-c2sc(NC(C)=O)nc2C)n1 [Example 58]
500 to 10000,,"CC(=O)Nc1nc(C)c(-c2nc(C(=O)N3CCOCC3)no2)s1 [Example 72, N-{4-methyl-5-[3-(morpholin-4-ylcarbonyl)-1,2,4-oxadiazol-5-yl]-1,3-thiazol-2-yl}acetamide]"
< 100,,CC(=O)Nc1nc(C)c(-c2nc(-c3ccccc3CO)no2)s1 [Example 29]
100 to 500,,CC(=O)Nc1nc(C)c(-c2nc(CCC(C)(C)O)no2)s1 [Example 47]
100 to 500,,CC(=O)CCc1noc(-c2sc(NC(C)=O)nc2C)n1 [Example 66]
100 to 500,,"Cc1nc(NC(=O)C(C)C)sc1-c1nc(-c2cccnc2)no1 [Example 115, 2-Methyl-N-{4-methyl-5-[3-(pyridin-3-yl)-1,2,4-oxadiazol-5-yl]-1,3-thiazol-2-yl}propanamide]"
< 100,,Cc1nc(NC(=O)NCCO)sc1-c1nc(-c2cccnc2)no1 [Example 120]
< 100,,CC(=O)Nc1nc(C)c(-c2nc(CC(C)(C)C(C)O)no2)s1 (stereo not drawn) [Example 85]
< 100,,CC(=O)Nc1nc(C)c(-c2nc(CC(C)(C)C(N)=O)no2)s1 [Example 111]
500 to 10000,,CC(=O)Nc1nc(C)c(-c2nc(CCCOC(C)=O)no2)s1 [Example 30]
< 100,,CC(=O)Nc1nc(C)c(-c2nc(CC3(CO)CC3)no2)s1 [Example 48]

IC50 [1] [nM],IC50 (read-out: IC50 value) [nM],Compound
500 to 10000,,CC(=O)Nc1nc(C)c(-c2nc(CC(C)(C)CN)no2)s1 [Example 43]
< 100,,COCCc1noc(-c2sc(NC(=O)NCCC(=O)OC(C)(C)C)nc2C)n1 [Example 154]
500 to 10000,7230,CC(=O)Nc1nc(C)c(-c2nc(-c3ccc(OCc4cccnc4)nc3)no2)s1 [Example 5]
< 100,,Cc1nc(NC(=O)NCCN2CCOCC2)sc1-c1nc(-c2cccnc2)no1 [Example 121]
< 100,,Cc1nc(NC(=O)NCCC(=O)N2CCC(O)CC2)sc1-c1nc(-c2cccnc2)no1 [Example 150]
100 to 500,,CC(=O)Nc1nc(C)c(-c2nc(C(=O)N3CC(O)C3)no2)s1 [Example 90]
100 to 500,,CC(=O)Nc1nc(C)c(-c2nc(-c3ccccn3)no2)s1 [Example 10]
< 100,,Cc1nc(NC(=O)NCC(C)O)sc1-c1nc(-c2cccnc2)no1 (stereo not drawn) [Example 175]
< 100,,CC(=O)Nc1nc(C)c(-c2nc(-c3cncc(O)c3)no2)s1 [Example 32]
< 100,,CC(=O)Nc1nc(C)c(-c2nc(-c3ccc(CO)cc3)no2)s1 [Example 25]
< 100,,Cc1nc(NC(=O)NCCC(=O)OC(C)(C)C)sc1-c1nc(CC(F)(F)F)no1 [Example 147]
< 100,,CC(=O)Nc1nc(C)c(-c2nc(CC(C)(C)O)no2)s1 [Example 34]
< 100,,CCOC(=O)CCNC(=O)Nc1nc(C)c(-c2nc(-c3cccnc3)no2)s1 [Example 119]
100 to 500,,CC(=O)Nc1nc(C)c(-c2nc(CC(C)(C)COS(C)(=O)=O)no2)s1 [Example 76]
< 100,,Cc1nc(N)sc1-c1nc(CC(F)(F)F)no1 [Example 146]
< 100,,Cc1nc(NC(=O)NCCCN2CCOCC2)sc1-c1nc(-c2cccnc2)no1 [Example 142]
< 100,,CC(=O)Nc1nc(C)c(-c2nc(-c3cncc(C)c3)no2)s1 [Example 15]
< 100,,CC(=O)Nc1nc(C)c(-c2nc(CC(C)(C)C(=O)O)no2)s1 [Example 108]
< 100,,CC(=O)Nc1nc(C)c(-c2nc(CC(C)(C)C)no2)s1 [Example 68]
< 100,,Cc1nc(NC(=O)NCCC(=O)OC(C)(C)C)sc1-c1nc(CC(C)(C)O)no1 [Example 170]
< 100,,Cc1nc(NC(=O)NCCC(=O)O)sc1-c1nc(-c2cccnc2)no1 [Example 136]
500 to 10000,,CC(=O)Nc1nc(C)c(-c2nc(C(C)NC(=O)OC(C)(C)C)no2)s1 (stereo not drawn) [Example 74]
< 100,,Cc1nc(NC(=O)NCCOC(=O)C(C)(C)C)sc1-c1nc(-c2cccnc2)no1 [Example 135]
< 100,,CC(=O)Nc1nc(C)c(-c2nc(CC3(C)COC3)no2)s1 [Example 41]
< 100,,CC(=O)Nc1nc(C)c(-c2nc(C3CCC3)no2)s1 [Example 26]

IC50 [1] [nM],IC50 (read-out: IC50 value) [nM],Compound
< 100,,CCC(O)C(C)(C)Cc1noc(-c2sc(NC(C)=O)nc2C)n1 (stereo not drawn) [Example 97]
500 to 10000,,CC(=O)Nc1nc(C)c(-c2nc(CCCCOC(C)=O)no2)s1 [Example 59]
< 100,,Cc1nc(NC(=O)NCCC(=O)N2CCOCC2)sc1-c1nc(-c2cccnc2)no1 [Example 145]
100 to 500,,Cc1nc(NC(=O)CCNC(=O)OC(C)(C)C)sc1-c1nc(CC(C)(C)CO)no1 [Example 163]
< 100,,Cc1nc(NC(=O)NCCc2ccccn2)sc1-c1nc(-c2cccnc2)no1 [Example 171]
100 to 500,,"COC(C)(C)Cc1noc(-c2sc(NC(C)=O)nc2C)n1 [Example 84, N-{5-[3-(2-methoxy-2-methylpropyl)-1,2,4-oxadiazol-5-yl]-4-methyl-1,3-thiazol-2-yl}acetamide]"
100 to 500,428,CC(=O)Nc1nc(C)c(-c2nc(CC(O)CC(F)(F)F)no2)s1 (stereo not drawn) [Example 67]
100 to 500,,CNC(=O)c1noc(-c2sc(NC(C)=O)nc2C)n1 [Example 78]
< 100,,CCOC(=O)CCCC(=O)Nc1nc(C)c(-c2nc(-c3cccnc3)no2)s1 [Example 118]
< 100,,Cc1nc(NC(=O)NCCNC(=O)C(C)(C)C)sc1-c1nc(-c2cccnc2)no1 [Example 139]
< 100,,COc1ncccc1-c1noc(-c2sc(NC(C)=O)nc2C)n1 [Example 16]
100 to 500,,"CC(=O)Nc1nc(C)c(-c2nc(N3CCOCC3)no2)s1 [Example 87, N-{4-methyl-5-[3-(morpholin-4-yl)-1,2,4-oxadiazol-5-yl]-1,3-thiazol-2-yl}acetamide]"
500 to 10000,,CC(=O)Nc1nc(C)c(-c2nc(CCN3CCCC3=O)no2)s1 [Example 89]
500 to 10000,,CC(=O)Nc1nc(C)c(-c2nc(Cn3cccn3)no2)s1 [Example 99]
< 100,,Cc1nc(NC(=O)NCCC(=O)OCCO)sc1-c1nc(-c2cccnc2)no1 [Example 151]
< 100,,COCC(=O)Nc1nc(C)c(-c2nc(-c3cccnc3)no2)s1 [Example 116]
500 to 10000,,Cc1nc(NC(=O)N2CCC(O)CC2)sc1-c1nc(-c2cccnc2)no1 [Example 137]
< 100,,Cc1nc(NC(=O)NCCCNC(C)(C)C)sc1-c1nc(-c2cccnc2)no1 [Example 148]
100 to 500,,CC(=O)Nc1nc(C)c(-c2nc(CCO)no2)s1 [Example 13]
< 100,,COc1ccc(-c2noc(-c3sc(NC(C)=O)nc3C)n2)cn1 [Example 4]
< 100,,CC(=O)Nc1nc(C)c(-c2nc(C3CCCCC3)no2)s1 [Example 9]
< 100,,CC(=O)Nc1nc(C)c(-c2nc([C@H](O)C(C)(C)C)no2)s1 [Example 69]
< 100,,CC(=O)Nc1nc(C)c(-c2nc(-c3ccccc3)no2)s1 [Example 7]
